In US9862713B2, “Substituted bicyclic heteroaryl compounds as RXR agonists” (CONNEXIOS LIFE SCIENCES PVT. LTD., priority 2014, dated 2018):

Assays:
[1] = test system: astrocytes; assay: Astrocytes treated with PMA and LPS: ROS levels and inflammation markers; format: cell-based; conditions: 48 h
Experimental: Furthermore, cultured astrocytes were treated with phorbol-12-myristate-13-acetate (PMA) and Lipopolysaccharides (LPS) alone or with test molecule for 48 h to measure ROS levels. To evaluate the effect on inflammation markers, astrocytes were treated with PMA and test molecule for 48 h.

[2] = test system: MIA PaCa-2 cells; assay: MIA PaCa-2 cell growth (cell count); format: cell-based; conditions: 0.1 uM and higher (up to 10.0 uM); day 2, 4 and 6
Experimental: Cancer is characterized by uncontrolled cell growth. Any agent which can reduce the cellular growth will have high therapeutic potentials. […] MIA PaCa-2 cells (ATCC) were seeded in a 6-well plate (20,000 cells per well) in DMEM containing 25 mM glucose, 10% FBS, 2.5% horse serum in presence or absence of different concentrations of compound-40 as mentioned. Cells were harvested on day 2, day 4 and day 6, and cell numbers were measured. MIA PaCa-2 cells were grown with or without different concentrations of compound-40 (0.0, 0.1, 0.3, 1.0, 3.0 and 10.0 uM) and cell growth was measured by cell count at different time points (day 2, 4 and 6).

[3] = test system: MCF7 breast cancer cell line; assay: MCF7 breast cancer cell line: growth, BrdU incorporation, ROS, DNA fragmentation; format: cell-based
[4] = test system: HL-60 promyelocytic leukemia cell line; assay: HL-60 differentiation (NBT reduction); format: cell-based; conditions: 72 h culture
Experimental: Progression of promyelocytic leukemia can be abrogated by their differentiation. […] In order to estimate the differentiating ability of compound-40, HL-60 promyelocytic leukemia cell line was used as an in vitro model of the disease. HL-60 cells were cultured for 72 h as either control or under treatment as mentioned. After 72 h of culture, cells were exposed to nitro blue tetrazolium (NBT) solution containing phorbol myristate acetate (PMA) for 1 h at 37° C. Differentiated cells have increased oxidative burst potential which reduces NBT. Levels of reduced NBT were measured at 540 nm absorption.

[5] = test system: ob/ob mice; assay: Effect of RXR agonist on ob/ob mice; format: in vivo; conditions: 3, 10 and 30 mg/kg, BID, po; 4 weeks
Experimental: The male ob/ob and lean mice were procured from Harlon laboratories, acclimatized for a week, were fed a standard laboratory diet. The lean control and the ob/ob mice were 16 weeks old at the start of the study and were randomized to either vehicle or drug (Compound 40, 3, 10 and 30 mg/kg, BID, po) treatment groups by body weight, fed glucose and glucose AUC during an oral glucose tolerance test. The treatment was continued for 4 weeks. Fed glucose and fast triglycerides (tail snip) were monitored weekly. At the end of week 4 of the treatment, Animals were sacrificed […] terminal measurement of fasting glycerol, free fatty acid, cholesterol, LDL levels.

[6] = test system: Male Wistar rats; assay: Isoprenaline induced cardiac hypertrophy in rats; format: in vivo; conditions: 10 mg/kg, p.o., q.d., 11 weeks
Experimental: Male Wistar rats of fourteen weeks age were housed under controlled temperature 22±3° C., relative humidity 50-70%, 12 hour light and 12 hour dark cycle with artificial fluorescent tubes. Animals were acclimatized for seven days. On eight day animals were randomized based on their body weights and allotted into nine animals/group. Different groups into which animals allotted were G1: Vehicle control, G2: Isoprenaline control (5 mg/kg, s.c. twice a week) and G3: Isoprenaline (5 mg/kg, s.c. twice a week)+Compound 40 (10 mg/kg, p.o., q.d.). Treatment with Compound 40 (10 mpk) for G3 group was started one week prior to isoprenaline administration and both the treatments were continued for eleven weeks. The animals were monitored for daily feed consumption and weekly body weight throughout the study. At the end of treatment period (Week 11) five animals from each group were subjected to Cardiovascular hemodynamic assessment by Millar catheter using MPVS Ultra control interface connected to AD power lab, AD instruments. Different parameters measured were heart rate, stroke work, stroke volume, cardiac output, left ventricular systolic pressure, left ventricular diastolic pressure, left ventricular diastolic volume Immediately after hemodynamic estimation terminal blood from all the animals were collected followed by the collection of hearts. All the separated serum samples were used for estimation of several cardiac markers like ANP, BNP, CRP, LDH, CKN, CKMB and SGOT. Collected hearts were examined for histopathological changes and gene expression studies. All the numerical output was expressed as Mean±SEM, one way ANOVA followed by Dunnets' test using Graph pad prism software.

[7] = test system: male Syrian Hamsters; assay: High cholesterol diet induced hyperlipidaemia in hamsters; format: in vivo; conditions: 10 mg/kg b.wt, 8-12 weeks
Experimental: Eight to ten week old male Syrian Hamsters were housed in polypropylene cages provided with sterile paddy husk as bedding material. The animals were maintained at temperature 22±3° C., relative humidity 50-70%, 15-18 air cycle changes with 12 h dark and light cycle. The animals were provided with rodent feed (ad libitum) supplied by harlan laboratories to normal control animals and treatment groups were fed with High Cholesterol diet, prepared in-house by mixing 11.5% coconut oil, 11.5% corn oil, 0.5% cholesterol, and 0.25% deoxycholate in chow diet. Bisleri water (ad libitum) was provided. The animals were randomized based on body weight and divided into control and treatment groups. Compound 40 was administered, at a dose of 10 mg/kg b.wt, for a period of 8-12 weeks to the treatment group. Daily feed consumption, weekly body weight, total cholesterol and triglyceride levels were estimated.

`CC1(C)CCC(C)(C)c2sc(N(CC3CC3)c3ccc(C(=O)O)cn3)nc21` [Compound 40, 6-[(Cyclopropylmethyl) (4,4,7,7-tetramethyl-4,5,6,7-tetrahydro-1,3-benzothiazol-2-yl)amino]pyridine-3-carboxylic acid] was tested, and the “oxidative stress (ROS levels)” value ([1]; PMA and LPS) was “reduce both oxidative stress”, the “inflammation (IL6 secretion and expression, expression of IL1b, COX2 and MCP1)” value ([1]; PMA) was “reduce inflammation” and the “cell growth (cell count)” value [2] was “significant reduction in cell growth”. For the same compound, the BrdU incorporation ([3]; MCF7) was “significantly reduced”, the “apoptosis (DNA fragmentation)” value ([3]; MCF7) was “increased levels of apoptosis” and the “cellular stress (ROS levels)” value ([3]; MCF7) was “significant increase in cellular stress”. The cell growth ([3]; MCF7, 3 uM) was “reduced cell growth”, the HL-60 cells differentiation ([4]; NBT reduction at 540 nm) was “significantly increased” and the “HL-60 differentiation in combination with ATRA” value ([4]; together with ATRA) was “additive effect with ATRA”. The LDL-c [5] was “decreasing LDL-c”, the “prandial hyperglycemia (fed glucose)” value [5] was “both an early onset and sustained control of prandial hyperglycemia” and the total cholesterol [5] was “significantly decreased total cholesterol”. For the same compound, the absolute heart weight ([6]; isoprenaline 5 mg/kg, s.c. twice a week) was “substantial reduction”, the “Stroke volume (SV)” value ([6]; isoprenaline) was “significant improvement” and the “Stroke work (SW)” value ([6]; isoprenaline) was “significant improvement”. The cardiac output ([6]; isoprenaline) was “improved”, the ejection fraction ([6]; isoprenaline) was “improved” and the heart rate ([6]; isoprenaline) was “improved”. For the same compound, the “thickness of the septum” value ([6]; isoprenaline) was “significant reduction”, the “thickness of the ventricular wall” value ([6]; isoprenaline) was “significant reduction” and the ventricular refilling ([6]; isoprenaline) was “improvement in ventricular refilling”. The LDL-c [7] was “significant reduction”, the Non-HDL cholesterol [7] was “significant reduction” and the total cholesterol [7] was “significant reduction”.
